The record followed here is patent US20200317660A1, “Quinazolinone Compound and Application Thereof” (LUOXIN PHARMACEUTICAL (SHANGHAI) CO., LTD., priority 2017, published 2020).

Broadly, the IC50 is the point on the concentration scale where inhibition reaches its midpoint. Lower therefore signals greater potency in that assay.

SMILES strings stand for the structures.

One experiment deals with T1, PI3Kβ (Homo sapiens, UniProt P42338).
T1 construct: purchased Promega V1751
As to the kind of experiment: In vitro test of enzyme activity (ADP-Glo lipokinase), PI3K beta. To be noted: 40 μM ATP, 50 μM PIP2:3PS, 120 min. Type of experiment: biochemical. Here is the method:
(§1) 1. In Vitro Test of Enzyme Activity
(§2) The lipokinase reaction was carried out under the conditions of a suitable substrate and ATP, followed by two steps to detect the kinase activity with the ADP-Glo™ kit. The first step was terminating the kinase reaction, wherein the remaining ATP was completely removed and only ADP was left; the second step was adding kinase detection reagents to convert ADP to ATP, accompanied by luciferin/luciferase reaction. Finally, the output value of fluorescence value was converted into kinase activity.
(§3) Experimental materials and equipments:
(§4) 2. Kit: ADP-Glo™ Lipokinase and PIP2:3PS Kit (Promega # V1792)
(§5) The kit contains: 1 mM PIP2:3PS, 10× lipid dilution buffer, 1 M magnesium chloride, 10 mM ATP, 10 mM ADP, ADP-Glo reagent, detection buffer and detection substrate.
(§6) 3. Reaction plate: OptiPlate-384, white and transparent (PerkinElmer #6007299).
(§7) 1. 10× reaction buffer: 500 mM HEPES, pH 7.5, 500 mM NaCl, 9 mM MgCl2; BSA: 10% stock solution, homemade.
(§8) 2. Final test system conditions: 1× reaction system: 50 mM HEPES, 50 mM NaCl, 3 mM MgCl2, 0.01% BSA (freshly prepared on the day of the experiment), 1% DMSO (v/v)+/−compound
(§9) 3. Reaction system: 3 μL mixture of the enzyme and the substrate (1:1)+2 μL ATP/MgCl2 mixture+5 μL ADP-Glo reagent+10 μL detection reagent.
(§10) The detailed experimental procedures are as follows:
(§11) 1. Compound dilution: 50 nL 100×compound/DMSO was transferred to the test well plate with Echo. • For PI3Kα, the compound was diluted three-fold from the highest concentration of 0.111 mM for a total of 10 concentrations. • For PI3Kβ/PI3Kδ/PI3Kγ, the compound was three-fold diluted from the highest concentration of 1.11 mM for a total of 10 concentrations.
(§12) (1) The compound to be tested was prepared and 50 nL of 100 plus compound solution or DMSO was added to the corresponding well plate.
(§13) (2) 3.33 plate reaction buffer was prepared.
(§14) (3) 3.33 solution PIP2:3PS was prepared, PIP2:3PS was thawed for at least 1 minute before use.
(§15) (4) 2.5 mM containing 5.25 mM MgCl2 was prepared.
(§16) (5) 3.33 PI3Kα/PI3Kβ/PI3Kδ/PI3Kγ solution was prepared.
(§17) (6) The lipokinase solution and the PIP2:3PS solution were mixed in a volume ratio of 1:1.
(§18) (7) 3.33: lipokinase buffer and PIP2:3PS solution were mixed in a volume ratio of 1:1.
(§19) (8) 3 μL of buffer solution and PIP2:3PS were added to the first and the second columns of the well plate.
(§20) (9) 3 μL of the mixed solution of the enzyme and PIP2:3PS was added to the wells except the first and the second columns, centrifuged for 10 seconds (1000 rpm) and incubated at 23° C. for 20 minutes.
(§21) (10) 2 μL […] was added and well was shaken.
(§22) (11) The well plate was covered and shaken for about 30 s, then the well plate was incubated at 23° C. for 2 hours.
(§23) (12) 5 μL of ADP-Glo reagent containing 10 mM MgCl2 was added.
(§24) (13) The well plate was centrifuged at 1000 rpm for 10 seconds, and the well plate was then covered, shaken for about 30 seconds, and incubated at 23° C. for 60 minutes.
(§25) (14) 10 μL kinase detection reagent was added.
(§26) (15) The well plate was centrifuged at 1000 rpm for 10 seconds, and then incubated at 23° C. for 60 minutes.
(§27) (16) The fluorescence value was measured on the Envision instrument.
A general note: ADP-Glo turns the ADP formed in a reaction into a luminescent signal.

The next experiment addresses T2, PI3Kα (Homo sapiens, UniProt P42336).
T2 construct: purchased Millipore 14-602-K
As to the kind of experiment: In vitro test of enzyme activity (ADP-Glo lipokinase), PI3K alpha. It counts as biochemical. The conditions noted are these: 40 μM ATP, 50 μM PIP2:3PS, 120 min. Here is the method: as §1, §2, §3, §4, §5, §6, §7, §8, §9, §10, §11, §12, §13, §14, §15, §16, §17, §18, §19, §20, §21, §22, §23, §24, §25, §26, §27

T1 sequence (P42338 whole entry): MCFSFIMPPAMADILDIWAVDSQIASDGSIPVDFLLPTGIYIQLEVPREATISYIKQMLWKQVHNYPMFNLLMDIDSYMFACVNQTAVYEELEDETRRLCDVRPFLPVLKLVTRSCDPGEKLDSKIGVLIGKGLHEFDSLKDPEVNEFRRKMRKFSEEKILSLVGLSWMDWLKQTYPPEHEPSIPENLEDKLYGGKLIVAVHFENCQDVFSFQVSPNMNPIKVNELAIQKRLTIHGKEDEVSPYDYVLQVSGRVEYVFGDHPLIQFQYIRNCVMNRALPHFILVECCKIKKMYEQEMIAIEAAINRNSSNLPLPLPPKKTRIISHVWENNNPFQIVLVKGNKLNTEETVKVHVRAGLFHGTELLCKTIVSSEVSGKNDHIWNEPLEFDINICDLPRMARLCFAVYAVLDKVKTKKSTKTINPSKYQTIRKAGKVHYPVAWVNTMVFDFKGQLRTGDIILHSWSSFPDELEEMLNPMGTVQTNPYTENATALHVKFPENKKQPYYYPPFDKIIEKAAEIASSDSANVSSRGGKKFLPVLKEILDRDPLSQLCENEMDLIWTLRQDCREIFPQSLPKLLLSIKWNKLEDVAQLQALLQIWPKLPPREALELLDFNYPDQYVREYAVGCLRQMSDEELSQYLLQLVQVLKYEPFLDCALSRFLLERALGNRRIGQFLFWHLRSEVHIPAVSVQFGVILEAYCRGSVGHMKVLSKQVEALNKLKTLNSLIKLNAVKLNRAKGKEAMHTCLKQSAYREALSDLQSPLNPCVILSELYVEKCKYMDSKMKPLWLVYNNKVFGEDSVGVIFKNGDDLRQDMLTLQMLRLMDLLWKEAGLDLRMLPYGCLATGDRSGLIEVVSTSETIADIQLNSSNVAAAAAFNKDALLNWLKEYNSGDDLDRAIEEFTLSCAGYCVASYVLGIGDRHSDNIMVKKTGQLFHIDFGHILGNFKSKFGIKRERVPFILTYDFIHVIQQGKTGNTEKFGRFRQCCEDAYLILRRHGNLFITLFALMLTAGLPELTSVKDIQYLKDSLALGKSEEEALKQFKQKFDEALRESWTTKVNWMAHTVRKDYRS
T1 sequence (P27986 whole entry partner): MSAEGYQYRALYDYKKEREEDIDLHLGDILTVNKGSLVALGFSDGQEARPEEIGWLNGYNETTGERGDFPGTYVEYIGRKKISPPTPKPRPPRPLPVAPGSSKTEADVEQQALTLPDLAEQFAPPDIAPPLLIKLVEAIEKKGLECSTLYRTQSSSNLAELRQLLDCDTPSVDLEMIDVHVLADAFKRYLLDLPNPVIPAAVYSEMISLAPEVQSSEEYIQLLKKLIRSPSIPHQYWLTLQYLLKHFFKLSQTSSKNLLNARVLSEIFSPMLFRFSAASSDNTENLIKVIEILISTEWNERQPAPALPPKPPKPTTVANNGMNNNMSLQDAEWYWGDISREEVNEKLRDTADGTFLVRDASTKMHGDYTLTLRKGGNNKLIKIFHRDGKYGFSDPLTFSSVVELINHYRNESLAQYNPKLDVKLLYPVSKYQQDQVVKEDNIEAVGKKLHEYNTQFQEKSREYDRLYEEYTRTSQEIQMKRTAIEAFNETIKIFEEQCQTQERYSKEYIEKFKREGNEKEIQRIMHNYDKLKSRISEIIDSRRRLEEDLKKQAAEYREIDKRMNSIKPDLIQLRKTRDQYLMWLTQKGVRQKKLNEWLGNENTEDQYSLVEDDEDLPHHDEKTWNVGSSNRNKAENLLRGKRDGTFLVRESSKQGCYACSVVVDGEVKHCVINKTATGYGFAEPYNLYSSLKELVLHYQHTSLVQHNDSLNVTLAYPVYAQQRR
T2 sequence (P42336 whole entry): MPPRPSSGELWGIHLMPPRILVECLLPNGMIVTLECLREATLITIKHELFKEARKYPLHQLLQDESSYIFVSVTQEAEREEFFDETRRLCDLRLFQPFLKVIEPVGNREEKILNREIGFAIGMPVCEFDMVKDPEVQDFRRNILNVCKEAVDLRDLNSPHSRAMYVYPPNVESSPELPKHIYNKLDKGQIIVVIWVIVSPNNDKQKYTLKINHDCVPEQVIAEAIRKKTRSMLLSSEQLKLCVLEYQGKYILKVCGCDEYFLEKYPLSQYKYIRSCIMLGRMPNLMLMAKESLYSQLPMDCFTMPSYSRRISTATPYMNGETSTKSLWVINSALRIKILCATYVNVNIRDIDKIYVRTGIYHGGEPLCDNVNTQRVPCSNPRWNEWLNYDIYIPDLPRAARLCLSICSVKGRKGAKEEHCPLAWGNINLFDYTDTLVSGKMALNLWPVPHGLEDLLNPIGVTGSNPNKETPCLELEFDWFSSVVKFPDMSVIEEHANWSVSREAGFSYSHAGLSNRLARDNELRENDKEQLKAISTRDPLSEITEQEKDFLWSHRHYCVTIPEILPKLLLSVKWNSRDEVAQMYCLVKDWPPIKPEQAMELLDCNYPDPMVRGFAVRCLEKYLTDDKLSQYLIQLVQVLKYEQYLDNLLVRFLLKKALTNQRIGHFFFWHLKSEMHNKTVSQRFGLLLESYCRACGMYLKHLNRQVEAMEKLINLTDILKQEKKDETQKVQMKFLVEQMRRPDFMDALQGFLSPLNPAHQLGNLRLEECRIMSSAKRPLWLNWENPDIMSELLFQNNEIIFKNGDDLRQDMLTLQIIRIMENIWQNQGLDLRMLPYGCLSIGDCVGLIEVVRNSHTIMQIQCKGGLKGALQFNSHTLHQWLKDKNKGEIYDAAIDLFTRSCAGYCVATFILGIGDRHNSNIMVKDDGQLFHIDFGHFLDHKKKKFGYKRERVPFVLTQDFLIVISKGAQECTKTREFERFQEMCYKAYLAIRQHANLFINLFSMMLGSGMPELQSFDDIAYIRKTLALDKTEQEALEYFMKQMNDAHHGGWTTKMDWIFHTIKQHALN
T2 sequence (P27986 whole entry partner): as the sequence (P27986 whole entry partner) above

On to `COC(=O)C(C)Cn1cnc2ccc(-c3cnc(OC)c(NS(=O)(=O)c4ccc(F)cc4Cl)c3)cc2c1=O` (single isomer, unassigned) [R005, reference compound], for which the IC50 against PI3Kβ was 100 nM; on PI3Kα, 5.84 nM.

For `CNC(=O)C(C)Cn1cnc2ccc(-c3cnc(OC)c(NS(=O)(=O)c4ccc(F)cc4)c3)cc2c1=O` (single isomer, unassigned) [WX088], the IC50 stood at 211 nM against PI3Kβ and 8 nM at PI3Kα.

For `CNC(=O)C(C)Cn1cnc2ccc(-c3cnc(OC)c(NS(=O)(=O)c4ccc(C)cc4C)c3)cc2c1=O` (single isomer, unassigned) [WX092], the figures for the IC50 against PI3Kβ and against PI3Kα were 250 nM and 6.47 nM, respectively.

For the compound `CNC(=O)C(C)Cn1cnc2ccc(-c3cnc(OC)c(NS(=O)(=O)c4cc(Cl)c(F)cc4F)c3)cc2c1=O` (single isomer, unassigned) [WX096], the IC50 against PI3Kβ was 175 nM; against PI3Kα it was 8.51 nM.

On to `CNC(=O)C(C)Cn1cnc2ccc(-c3cnc(OC)c(NS(=O)(=O)c4cc(C(F)(F)F)cc(C(F)(F)F)c4)c3)cc2c1=O` (single isomer, unassigned) [WX104], for which the figures for the IC50 against PI3Kβ and against PI3Kα were 1950 nM and 38.5 nM, respectively.

As to `CNC(=O)C(C)Cn1cnc2ccc(-c3cnc(OC)c(NS(=O)(=O)c4ccc(F)c(C#N)c4)c3)cc2c1=O` (single isomer, unassigned) [WX156], the IC50 on PI3Kβ worked out at 498 nM; at PI3Kα it was 3.56 nM.

On to `CNC(=O)C(C)Cn1cnc2ccc(-c3cnc(OC)c(NS(=O)(=O)c4ccc(F)c(C#N)c4)c3)cc2c1=O` (single isomer, unassigned) [WX157], for which the IC50 on PI3Kβ was found to be 287 nM; against PI3Kα, 5.81 nM.

Regarding `CNC(=O)C(C)Cn1cnc2ccc(-c3cnc(OC)c(NS(=O)(=O)c4ccc(C)c(Cl)c4)c3)cc2c1=O` (single isomer, unassigned) [WX160], the IC50 turned out to be 2100 nM at PI3Kβ and 11.2 nM against PI3Kα.

With `CNC(=O)C(C)Cn1cnc2ccc(-c3cnc(OC)c(NS(=O)(=O)c4ccc(C)c(Cl)c4)c3)cc2c1=O` (single isomer, unassigned) [WX161], the IC50 at PI3Kβ is 153 nM; on PI3Kα, 8.92 nM.

For `CNC(=O)C(C)Cn1cnc2ccc(-c3cnc(OC)c(NS(=O)(=O)c4ccc(F)c(Cl)c4)c3)cc2c1=O` (single isomer, unassigned) [WX166], the results for the IC50 on PI3Kβ and on PI3Kα were 222 nM and 5.78 nM, respectively.

Turning to `CNC(=O)C(C)Cn1cnc2ccc(-c3cnc(OC)c(NS(=O)(=O)c4ccc(F)c(Cl)c4)c3)cc2c1=O` (single isomer, unassigned) [WX167], the figures for the IC50 against PI3Kβ and against PI3Kα were 159 nM and 13 nM, respectively.

Consider `CNC(=O)C(C)Cn1cnc2ccc(-c3cnc(OC)c(NS(=O)(=O)c4ccc(F)cc4C)c3)cc2c1=O` (single isomer, unassigned) [WX180], for which the values for the IC50 at PI3Kβ and at PI3Kα were 411 nM and 10.2 nM, respectively.

Turning to `CNC(=O)C(C)Cn1cnc2ccc(-c3cnc(OC)c(NS(=O)(=O)c4cc(C)cc(F)c4)c3)cc2c1=O` (single isomer, unassigned) [WX187], the IC50 was found to be 331 nM against PI3Kβ and 4.84 nM against PI3Kα.

Take `CNC(=O)C(C)Cn1cnc2ccc(-c3cnc(OC)c(NS(=O)(=O)c4cc(F)cc(F)c4)c3)cc2c1=O` (single isomer, unassigned) [WX193]: the IC50 was 451 nM against PI3Kβ and 12.6 nM against PI3Kα.

Take `CNC(=O)C(C)Cn1cnc2ccc(-c3cnc(OC)c(NS(=O)(=O)c4ccc(F)cc4C(F)(F)F)c3)cc2c1=O` (single isomer, unassigned) [WX195]: the results for the IC50 on PI3Kβ and against PI3Kα were 327 nM and 5.58 nM, respectively.

Take `CNC(=O)C(C)Cn1cnc2ccc(-c3cnc(OC)c(NS(=O)(=O)c4ccc(OC)cc4)c3)cc2c1=O` (single isomer, unassigned) [WX204]: the IC50 is 527 nM against PI3Kβ and 22.5 nM at PI3Kα.

With `CNC(=O)C(C)Cn1cnc2ccc(-c3cnc(OC)c(NS(=O)(=O)c4c(Cl)cccc4Cl)c3)cc2c1=O` (single isomer, unassigned) [WX208], the IC50 against PI3Kβ was determined as 119 nM; against PI3Kα, 2.49 nM.

On to `CNC(=O)C(C)Cn1cnc2ccc(-c3cnc(OC)c(NS(=O)(=O)c4sccc4C)c3)cc2c1=O` (single isomer, unassigned) [WX209], for which the IC50 is 176 nM against PI3Kβ and 4.08 nM on PI3Kα.

For the compound `CNC(=O)C(C)Cn1cnc2ccc(-c3cnc(OC)c(NS(=O)(=O)c4cc(C)ccc4Cl)c3)cc2c1=O` (single isomer, unassigned) [WX213], the IC50 on PI3Kβ turned out to be 201 nM; at PI3Kα, 4.52 nM.

In the case of `CNC(=O)C(C)Cn1cnc2ccc(-c3cnc(OC)c(NS(=O)(=O)c4ccc(Cl)cc4C)c3)cc2c1=O` (single isomer, unassigned) [WX217], the figures for the IC50 against PI3Kβ and against PI3Kα were 269 nM and 3.47 nM, respectively.

For the compound `CNC(=O)C(C)Cn1cnc2ccc(-c3cnc(OC)c(NS(=O)(=O)c4ccc(Cl)cc4C)c3)cc2c1=O` (single isomer, unassigned) [WX218], the IC50 on PI3Kβ stood at 216 nM; against PI3Kα it was 5.04 nM.

On to `CNC(=O)C(C)Cn1cnc2ccc(-c3cnc(OC)c(NS(=O)(=O)c4cccc(C)c4F)c3)cc2c1=O` (single isomer, unassigned) [WX219], for which the results for the IC50 on PI3Kβ and at PI3Kα were 276 nM and 5.36 nM, respectively.

With `CNC(=O)C(C)Cn1cnc2ccc(-c3cnc(OC)c(NS(=O)(=O)c4cccc(C)c4F)c3)cc2c1=O` (single isomer, unassigned) [WX220], the half-maximal inhibitory concentration (IC50) on PI3Kβ amounted to 139 nM; on PI3Kα it was 10.1 nM.

As to `CNC(=O)C(C)Cn1cnc2ccc(-c3cnc(OC)c(NS(=O)(=O)c4cc(Cl)ccc4C)c3)cc2c1=O` (single isomer, unassigned) [WX221], the half-inhibitory concentration (IC50) against PI3Kβ came to 162 nM; on PI3Kα it was 4.61 nM.

Consider `CCOC(=O)CCCn1cnc2ccc(-c3cnc(OC)c(NS(=O)(=O)c4ccc(F)cc4Cl)c3)cc2c1=O` [R001, reference compound], for which the IC50 on PI3Kβ came to 100 nM; against PI3Kα, 3.77 nM.

Regarding `CNC[C@@H](C)Cn1cnc2ccc(-c3cnc(OC)c(NS(=O)(=O)c4ccc(F)cc4Cl)c3)cc2c1=O` [R008, reference compound], the IC50 at PI3Kβ worked out at 121 nM; against PI3Kα it was 12 nM.

Take `CNC[C@H](C)Cn1cnc2ccc(-c3cnc(OC)c(NS(=O)(=O)c4ccc(F)cc4Cl)c3)cc2c1=O` [R009, reference compound]: the values for the IC50 against PI3Kβ and at PI3Kα were 108 nM and 10.4 nM, respectively.

On to `COc1ncc(-c2ccc3ncn(CC(C)(C)C(N)=O)c(=O)c3c2)cc1NS(=O)(=O)c1ccc(F)cc1Cl` [WX020], for which the figures for the IC50 against PI3Kβ and at PI3Kα were 413 nM and 10.2 nM, respectively.

For `CNC(=O)C(C)Cn1cnc2ccc(-c3cnc(C(F)(F)F)c(NS(=O)(=O)c4ccc(F)cc4Cl)c3)cc2c1=O` (stereo not shown) [WX084], the values for the IC50 against PI3Kβ and against PI3Kα were 110 nM and 0.56 nM, respectively.

`CNC(=O)[C@H](C)Cn1cnc2ccc(-c3cnc(OC)c(NS(=O)(=O)c4cc(Cl)ccc4Cl)c3)cc2c1=O` [WX182]: the figures for the IC50 against PI3Kβ and at PI3Kα were 73.3 nM and 1.47 nM, respectively.

As for `CNC(=O)[C@@H](C)Cn1cnc2ccc(-c3cnc(OC)c(NS(=O)(=O)c4cc(C)cc(Cl)c4)c3)cc2c1=O` [WX184], the IC50 was determined as 192 nM at PI3Kβ and 8.14 nM on PI3Kα.

As for `CNC(=O)[C@H](C)Cn1cnc2ccc(-c3cnc(OC)c(NS(=O)(=O)c4cccc(C)c4Cl)c3)cc2c1=O` [WX188], the values for the IC50 against PI3Kβ and against PI3Kα were 152 nM and 2.98 nM, respectively.
